33 molecules from PubChem BioAssay AID2060598 (Global Health Medicines R&D, GSK, 2025) can be followed below.

Some results are limits rather than exact numbers.

The assay has as its target P. falciparum 3D7A growth, LDH activity. Briefly: asexual P. falciparum growth inhibition, dose response, strain 3D7A, LDH readout (AID 2060598).

For the molecule `COc1ccc(-c2ccc(CNC(=O)c3cc(C(=O)NC(C)C)ccc3Cl)cc2)cn1`, the IC50 (in general, the concentration that inhibits the measured activity by half) runs as follows: (restricted media, 72 h) 63.1 nM; (standard media with serum) 631 nM.

`Cn1cccc1C1CCCN1CC(=O)Nc1ccc(S(=O)(=O)N2CCOCC2)cc1` (stereo unspecified): the IC50 (restricted media, 72 h) was 794 nM and the IC50 (standard media with serum) was determined as 10000 nM.

For `CN(C(=O)C[C@@H]1CCN(C(=O)C2CC2)C1)c1ccc(-c2ccc(C#N)cc2)cc1`, the IC50 was 251 nM (restricted media, 72 h) and 3980 nM (standard media with serum).

Turning to `COc1ccc2oc(C(=O)NC3CCC(Oc4ncccn4)CC3)cc2c1` (stereo unspecified), the IC50 is 126 nM (restricted media, 72 h) and 1260 nM (standard media with serum).

Take `Cc1cc(-c2cnc(N3CCn4c(nnc4C4CC4)C3)nc2-c2ccncc2)on1`: the IC50 runs as follows: (restricted media, 72 h) 100 nM; (standard media with serum) 1580 nM.

Regarding `CC(C)Oc1ccc(-c2nnc(Oc3cccc4c3CCN(CCC(N)=O)CC4)s2)cc1C#N`, the IC50 by setting is: (restricted media, 72 h) 501 nM; (standard media with serum) 10000 nM.

On to `O=C(CCCc1c[nH]c2ccccc12)N1CCN(c2ccc(N3CCOCC3)nn2)CC1`, for which the IC50 is 398 nM (restricted media, 72 h) and 5010 nM (standard media with serum).

Turning to `O=C(NCCCN1CCc2ccccc21)c1ccc2c(=O)n(Cc3ccccn3)cnc2c1`, the IC50 by setting is: (restricted media, 72 h) 63.1 nM; (standard media with serum) 794 nM.

Consider `COc1ccc(NC(=O)c2ccc3c(=O)n(Cc4ccccn4)cnc3c2)cc1N1CCN(C)CC1`, for which the IC50 was 398 nM (restricted media, 72 h) and 3980 nM (standard media with serum).

For `N#Cc1c(N)n[nH]c1CCCNC(=O)c1ccc(Cl)c(S(=O)(=O)N2CCCC2)c1`, the IC50 reads like this: (restricted media, 72 h) 50.1 nM; (standard media with serum) 631 nM.

For `O=C(CCCc1ncc(-c2ccccc2)o1)N1CCOC2CCCC21` (stereo unspecified), the IC50 (restricted media, 72 h) was 158 nM and the IC50 (standard media with serum) was 2000 nM.

For `O=C(COc1ccc(Br)cc1F)N1CCN(c2cnccn2)CC1`, the IC50 (restricted media, 72 h) is 251 nM and the IC50 (standard media with serum) was determined as 2510 nM.

As for `Cc1cccc(-c2nn(Cc3ccc(C(=O)NCCCO)cc3)c(=O)cc2N2CCCC(CO)C2)c1` (stereo unspecified), the IC50 (restricted media, 72 h) was 794 nM and the IC50 (standard media with serum) was found to be 7940 nM.

As to `O=C(/C=C/c1n[nH]c2ccccc12)Nc1ccc(C(=O)NCCN2CCOCC2)cc1`, the IC50 is 316 nM (restricted media, 72 h) and 3160 nM (standard media with serum).

Consider `CCN(CC)c1ccc(C(=O)COc2ccc3c(c2)CCNCC3)cc1`, for which the IC50 is, setting by setting: (restricted media, 72 h) 63.1 nM; (standard media with serum) 1000 nM.

With `O=C(Nc1nnc(-c2ccccc2)s1)N1CCCN(c2ncccn2)CC1`, the IC50 is, setting by setting: (restricted media, 72 h) 20 nM; (standard media with serum) 200 nM.

For `COc1ccc(C(=O)N2CCN(c3ccc(-n4cccn4)nn3)CC2)cc1OC`, the IC50 was 126 nM (restricted media, 72 h) and 1580 nM (standard media with serum).

On to `COc1ccc(N2CCN(C(=O)c3csc(Nc4ccccc4S(C)(=O)=O)n3)CC2)nc1`, for which the IC50 was 79.4 nM (restricted media, 72 h) and 1000 nM (standard media with serum).

As for `N#Cc1cccc(NC(=O)CNc2ccccc2C(=O)NC2CC2)c1`, the IC50 reads like this: (restricted media, 72 h) 39.8 nM; (standard media with serum) 398 nM.

`Cc1nn(C2CCS(=O)(=O)C2)c(C)c1CN(C)C(=O)CN1C(=O)NC2(CCCCC2C)C1=O` (stereo unspecified): the IC50 reads like this: (restricted media, 72 h) 63.1 nM; (standard media with serum) 631 nM.

Regarding `O=C1CSc2ccc(C(=O)Nc3ccc(-c4nnc5n4CCCCC5)cc3)cc2N1`, the IC50 (restricted media, 72 h) is 501 nM and the IC50 (standard media with serum) was 5010 nM.

`O=C(Nc1ccc(N2CCCC2)nc1)N1CCN(c2cnccn2)CC1`: the IC50 was 79.4 nM (restricted media, 72 h) and 2000 nM (standard media with serum).

For `O=C(c1cc2ccccc2[nH]1)N1CCC2(CC(Nc3ccncn3)C2)C1` (stereo unspecified), the IC50 reads like this: (restricted media, 72 h) 31.6 nM; (standard media with serum) 316 nM.

In the case of `O=C(CCn1nnc2cc(S(=O)(=O)N3CCCC3)ccc21)N1CCN(c2ccccn2)CC1`, the IC50 (restricted media, 72 h) was 126 nM and the IC50 (standard media with serum) came to 1260 nM.

On to `O=C(Nc1cccnc1)C1CCN(c2ccc(-c3ccco3)nn2)CC1`, for which the IC50 is 794 nM (restricted media, 72 h) and 7940 nM (standard media with serum).

As to `CCCOc1cncc(S(=O)(=O)c2ccc3c(c2)CCN(C2CCC2)CC3)c1`, the IC50 reads like this: (restricted media, 72 h) 316 nM; (standard media with serum) 3980 nM.

For `O=C(CCN=C1NS(=O)(=O)c2ccccc21)Nc1ccc(S(=O)(=O)N2CCCC2)cc1`, the IC50 reads like this: (restricted media, 72 h) 794 nM; (standard media with serum) 7940 nM.

Turning to `O=C(/C=C/c1n[nH]c2ccccc12)N1CCN(c2cnccn2)CC1`, the IC50 is, setting by setting: (restricted media, 72 h) 158 nM; (standard media with serum) 2000 nM.

On to `Cc1cc(Cl)ccc1OCC(=O)N1CCc2c(cnc(C)c2CNC(=O)c2ccc(=O)[nH]n2)C1`, for which the IC50 (restricted media, 72 h) is 20 nM and the IC50 (standard media with serum) was 316 nM.

As for `Cc1ccc2nc(CCNC(=O)CCS(=O)(=O)c3ccc4c(c3)CC(=O)N4C)[nH]c2c1`, the half-maximal inhibitory concentration (IC50) was 31.6 nM (restricted media, 72 h) and 501 nM (standard media with serum).

As for `NC(=O)CC1CCN(C(=O)c2sc3sccc3c2Cl)CC1`, the IC50 reads like this: (restricted media, 72 h) 316 nM; (standard media with serum) 3160 nM.

For `CCN(C(=O)C=Cc1ccc(S(=O)(=O)N2CCc3ccccc32)cc1)C1CCS(=O)(=O)C1` (stereo unspecified), the IC50 reads like this: (restricted media, 72 h) 200 nM; (standard media with serum) 2510 nM.

Turning to `O=C1CCCN1c1ccc(S(=O)(=O)N2CCN(S(=O)(=O)c3ccccc3)CC2)cc1`, the IC50 runs as follows: (restricted media, 72 h) 501 nM; (standard media with serum) above 50100 nM.
